Values of other authors as cited in article PMC9318694 (Molecules, 2022).
Structures can show the parent of a compound that is named as a salt. Where two headings read alike, the source gives them in different places.

Target: D2R (Homo sapiens, UniProt P14416)
Conditions: cited from earlier work
[1] = Table S1, data set of actives, radio-ligand binding assays, ref ChEMBL, [50]-[70], read-out: KI
[2] = Table S2, data set of inactives, radio-ligand binding (RLB) assays, ref ChEMBL, [71]-[92], read-out: KI

Chain of D2R (P14416 whole entry): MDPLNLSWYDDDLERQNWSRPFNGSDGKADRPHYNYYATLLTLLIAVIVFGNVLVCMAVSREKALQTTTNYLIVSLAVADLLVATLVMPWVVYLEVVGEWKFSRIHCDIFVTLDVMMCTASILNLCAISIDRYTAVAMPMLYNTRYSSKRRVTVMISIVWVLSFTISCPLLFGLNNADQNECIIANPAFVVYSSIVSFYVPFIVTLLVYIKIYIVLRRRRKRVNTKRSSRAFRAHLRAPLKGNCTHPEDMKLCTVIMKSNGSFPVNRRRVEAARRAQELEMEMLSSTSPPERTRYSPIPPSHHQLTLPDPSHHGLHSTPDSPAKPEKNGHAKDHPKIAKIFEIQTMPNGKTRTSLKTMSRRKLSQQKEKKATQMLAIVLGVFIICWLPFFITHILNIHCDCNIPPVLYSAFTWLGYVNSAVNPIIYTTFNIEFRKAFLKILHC

Compound | Ki [2] [µM] | also measured
CN[C@@H]1Cc2cccc3c2n(c(=O)n3CCOCCOCCOCCOc2ccc3c(c2)NC(=O)CC3)C1 [SC48, (R)-5-(methylamino)-1-(2-(2-(2-(2-((2-oxo-1,2,3,4-tetrahydroquinolin-7-yl)oxy)ethoxy)ethoxy)ethoxy)ethyl)-5,6-dihydro-4H-imidazo[4,5,1-ij]quinolin-2(1H)-one] | – | Ki [1]: 0.306 µM
CN(CCCCOc1ccc2c(c1)NC(=O)CC2)[C@@H]1Cc2cccc3[nH]c(=O)n(c23)C1 [SC49, (R)-5-(methyl(4-((2-oxo-1,2,3,4-tetrahydroquinolin-7-yl)oxy)butyl)amino)-5,6-dihydro-4H-imidazo[4,5,1-ij]quinolin-2(1H)-one] | – | Ki [1]: 0.0401 µM
CN[C@@H]1Cc2cccc3c2n(c(=O)n3CCOCCOCCCCc2ccccc2)C1 [SC50, (R)-5-(methylamino)-1-(2-(2-(4-phenylbutoxy)ethoxy)ethyl)-5,6-dihydro-4H-imidazo[4,5,1-ij]quinolin-2(1H)-one] | – | Ki [1]: 0.111 µM
CN[C@@H]1Cc2cccc3c2n(c(=O)n3CCCCCCCCCCCCOc2ccc3c(c2)NC(=O)CC3)C1 [SC51, (R)-5-(methylamino)-1-(12-((2-oxo-1,2,3,4-tetrahydroquinolin-7-yl)oxy)dodecyl)-5,6-dihydro-4H-imidazo[4,5,1-ij]quinolin-2(1H)-one] | – | Ki [1]: 0.284 µM
O=C1CCc2ccc(OCCCCN3CCCN(c4ccc(O)c5[nH]c(=O)ccc45)CC3)cc2N1 [SC52, 8-hydroxy-5-(4-(4-((2-oxo-1,2,3,4-tetrahydroquinolin-7-yl)oxy)butyl)-1,4-diazepan-1-yl)quinolin-2(1H)-one] | – | Ki [1]: 0.0016 µM; Ki (active data set, ref ChEMBL, read-out: KI / binding affinity): < 0.002 µM
CCCN(CCN1CCN(c2ccc(-c3ccccc3)cc2)CC1)[C@H]1CCc2nc(N)sc2C1 [SC53, (S)-N6-(2-(4-([1,1'-biphenyl]-4-yl)piperazin-1-yl)ethyl)-N6-propyl-4,5,6,7-tetrahydrobenzo[d]thiazole-2,6-diamine] | – | Ki [1]: 0.264 µM
CCCN(CCN1CCN(c2cccc3ncccc23)CC1)[C@H]1CCc2nc(N)sc2C1 [SC55, (S)-N6-propyl-N6-(2-(4-(quinolin-5-yl)piperazin-1-yl)ethyl)-4,5,6,7-tetrahydrobenzo[d]thiazole-2,6-diamine] | – | Ki [1]: 0.0577 µM
CCCN(CCN1CCN(c2nccc3ccccc23)CC1)[C@H]1CCc2nc(N)sc2C1 [SC56, (S)-N6-(2-(4-(isoquinolin-1-yl)piperazin-1-yl)ethyl)-N6-propyl-4,5,6,7-tetrahydrobenzo[d]thiazole-2,6-diamine] | – | Ki [1]: 0.269 µM
CCCN(CCN1CCN(c2ccnc3ccccc23)CC1)[C@H]1CCc2nc(N)sc2C1 [SC57, (S)-N6-propyl-N6-(2-(4-(quinolin-4-yl)piperazin-1-yl)ethyl)-4,5,6,7-tetrahydrobenzo[d]thiazole-2,6-diamine] | – | Ki (read-out: KI): 0.109 µM
Clc1ccc(N2CCN(CCCCNc3noc(-c4ccccc4)n3)CC2)cc1 [SC62, N-[4-[4-(4-chlorophenyl)piperazin-1-yl]butyl]-5-phenyl-1,2,4-oxadiazol-3-amine;hydrochloride] | 79 | –
COc1cc2c(cc1OC)CN(C=Nc1ccc3c(c1)C1SCCSC1C3)CC2 (stereo not drawn) [SC63, N-(3,4a,9,9a-tetrahydro-2H-indeno[1,2-b][1,4]dithiin-6-yl)-1-(6,7-dimethoxy-3,4-dihydro-1H-isoquinolin-2-yl)methanimine] | > 100 | –
COc1cc2c(cc1OC)CN(C=Nc1ccc3c(c1)C1SCCSC1CC3)CC2 (stereo not drawn) [SC64, N-(2,3,4a,5,6,10b-hexahydrobenzo[f][1,4]benzodithiin-9-yl)-1-(6,7-dimethoxy-3,4-dihydro-1H-isoquinolin-2-yl)methanimine] | > 300 | –
COc1ccc2[nH]c3c(c2c1)CCN=C3c1cc([N+](=O)[O-])cn1C [SC65, 6-methoxy-1-(1-methyl-4-nitropyrrol-2-yl)-4,9-dihydro-3H-pyrido[3,4-b]indole] | 200 | –
COc1cc2c(cc1OC)CN(C=Nc1ccc3c(c1)C1SCCSC1CC3)CC2 (stereo not drawn) [SC66, N-(2,3,4a,5,6,10b-hexahydrobenzo[f][1,4]benzodithiin-9-yl)-1-(6,7-dimethoxy-3,4-dihydro-1H-isoquinolin-2-yl)methanimine] | > 100 | –
COc1cc2c(cc1OC)CN(C=Nc1ccc3c(c1)C(O)CC3)CC2 (stereo not drawn) [SC67, 6-[(6,7-dimethoxy-3,4-dihydro-1H-isoquinolin-2-yl)methylideneamino]-2,3-dihydro-1H-inden-1-ol] | > 300 | –
OCc1cccn2ncc(CN3CCN(c4ccc(Cl)cc4)CC3)c12 [SC70, [3-[[4-(4-chlorophenyl)piperazin-1-yl]methyl]pyrazolo[1,5-a]pyridin-4-yl]methanol] | 79 | –
N#CC(C#N)=Cc1ccc(CN2CCN(c3ccccc3)CC2)[nH]1 [SC71, 2-[[5-[(4-phenylpiperazin-1-yl)methyl]-1H-pyrrol-2-yl]methylidene]propanedinitrile] | > 100 | –
NC(=O)C[S@@+]([O-])C(c1ccccc1)c1ccccc1 [SC72, 2-[(R)-benzhydrylsulfinyl]acetamide] | – | Ki: > 100 µM
CCCNC1CCn2ncc(C(=O)OC)c2C1 (stereo not drawn) [SC94, methyl 5-(propylamino)-4,5,6,7-tetrahydropyrazolo[1,5-a]pyridine-3-carboxylate] | > 100 | –
Fc1ccc(N2CCN(Cc3cn4ccncc4n3)CC2)cc1 [SC95, 2-[[4-(4-fluorophenyl)piperazin-1-yl]methyl]imidazo[1,2-a]pyrazine] | 68 | –
Cc1ccc(CNCC2(F)CCN(C(=O)c3cc(Br)cs3)CC2)nc1 [SC96, (4-bromothiophen-2-yl)-[4-fluoro-4-[[(5-methylpyridin-2-yl)methylamino]methyl]piperidin-1-yl]methanone] | 100 | –

Compound | Ki [2] [µM] | also measured
CCCN(CCC)[C@@H]1CCn2nccc2C1 [SC97, (5R)-N,N-dipropyl-4,5,6,7-tetrahydropyrazolo[1,5-a]pyridin-5-amine] | 55 | –
FCCOc1ccc(N2CCN(Cc3cnn4ccccc34)CC2)cc1 [SC98, 3-[[4-[4-(2-fluoroethoxy)phenyl]piperazin-1-yl]methyl]pyrazolo[1,5-a]pyridine] | 79 | –
CCCNCCCCNC(=O)c1ccc(-c2ccccc2)cc1 [SC99, 4-phenyl-N-[4-(propylamino)butyl]benzamide] | > 100 | –
COc1cccc(CCc2ccccc2OCCCCN2CCN(c3ccc(F)cc3)CC2)c1 [SC100, 1-(4-fluorophenyl)-4-[4-[2-[2-(3-methoxyphenyl)ethyl]phenoxy]butyl]piperazine] | 1320 | –
COc1cccc(CCc2ccccc2OCCN2CCN(c3ncccn3)CC2)c1 [SC101, 2-[4-[2-[2-[2-(3-methoxyphenyl)ethyl]phenoxy]ethyl]piperazin-1-yl]pyrimidine] | 629 | –
COc1cccc(CCc2ccccc2OCCCCN2CCN(c3cccc(Cl)c3)CC2)c1 [SC102, 1-(3-chlorophenyl)-4-[4-[2-[2-(3-methoxyphenyl)ethyl]phenoxy]butyl]piperazine] | > 1000 | –
COc1cccc(CCc2ccccc2OCCCCCN2CCN(c3cccc(Cl)c3)CC2)c1 [SC103, 1-(3-chlorophenyl)-4-[5-[2-[2-(3-methoxyphenyl)ethyl]phenoxy]pentyl]piperazine] | > 1000 | –
COc1cccc(CCc2ccccc2OCCN2CCN(c3cccc(C(F)(F)F)c3)CC2)c1 [SC104, 1-[2-[2-[2-(3-methoxyphenyl)ethyl]phenoxy]ethyl]-4-[3-(trifluoromethyl)phenyl]piperazine] | > 1000 | –
COc1cccc(CCc2ccccc2OCCCN2CCN(c3cccc(C(F)(F)F)c3)CC2)c1 [SC105, 1-[3-[2-[2-(3-methoxyphenyl)ethyl]phenoxy]propyl]-4-[3-(trifluoromethyl)phenyl]piperazine] | 1410 | –
COc1cccc(CCc2ccccc2OCCCN2CCN(c3ccc(F)cc3)CC2)c1 [SC106, 1-(4-fluorophenyl)-4-[3-[2-[2-(3-methoxyphenyl)ethyl]phenoxy]propyl]piperazine] | 655 | –
COc1cccc(CCc2ccccc2OCCCN2CCN(c3cccc(Cl)c3)CC2)c1 [SC107, 1-(3-chlorophenyl)-4-[3-[2-[2-(3-methoxyphenyl)ethyl]phenoxy]propyl]piperazine] | 298 | –
COc1cccc(CCc2ccccc2OCCCCCN2CCN(c3ccccc3OC)CC2)c1 [SC108, 1-(2-methoxyphenyl)-4-[5-[2-[2-(3-methoxyphenyl)ethyl]phenoxy]pentyl]piperazine] | > 1000 | –
COc1cccc(CCc2ccccc2OCCN2CCN(c3ccc(F)cc3)CC2)c1 [SC109, 1-(4-fluorophenyl)-4-[2-[2-[2-(3-methoxyphenyl)ethyl]phenoxy]ethyl]piperazine] | > 1000 | –
COc1cccc(CCc2ccccc2OCCCCN2CCN(c3cccc(C(F)(F)F)c3)CC2)c1 [SC110, 1-[4-[2-[2-(3-methoxyphenyl)ethyl]phenoxy]butyl]-4-[3-(trifluoromethyl)phenyl]piperazine] | > 1000 | –
COc1cccc(CCc2ccccc2OCCCCCN2CCN(C)CC2)c1 [SC111, 1-[5-[2-[2-(3-methoxyphenyl)ethyl]phenoxy]pentyl]-4-methylpiperazine] | > 1000 | –
COc1cccc(CCc2ccccc2OCCCCN2CCc3cc(OC)c(OC)cc3C2)c1 [SC112, 6,7-dimethoxy-2-[4-[2-[2-(3-methoxyphenyl)ethyl]phenoxy]butyl]-3,4-dihydro-1H-isoquinoline] | > 1000 | –
COc1cccc(CCc2ccccc2OCCCCN2CCc3ccccc3C2)c1 [SC113, 2-[4-[2-[2-(3-methoxyphenyl)ethyl]phenoxy]butyl]-3,4-dihydro-1H-isoquinoline] | > 1000 | –
COc1cccc(CCc2ccccc2OCCN2CCc3cc(OC)c(OC)cc3C2)c1 [SC114, 6,7-dimethoxy-2-[2-[2-[2-(3-methoxyphenyl)ethyl]phenoxy]ethyl]-3,4-dihydro-1H-isoquinoline] | > 1000 | –
COc1cccc(CCc2ccccc2OCCCN2CCc3cc(OC)c(OC)cc3C2)c1 [SC115, 6,7-dimethoxy-2-[3-[2-[2-(3-methoxyphenyl)ethyl]phenoxy]propyl]-3,4-dihydro-1H-isoquinoline] | – | Ki (read-out: KI): > 1000 µM
COc1cccc(CCc2ccccc2OCCCCN2CCN(C)CC2)c1 [SC116, 1-[4-[2-[2-(3-methoxyphenyl)ethyl]phenoxy]butyl]-4-methylpiperazine] | > 1000 | –
